Measurements from patent US9732046B2, “Substituted 1,2,4-triazines as tubulin inhibitors” (YM Biosciences Australia Pty Ltd., priority 2003, dated 2017).

Assays:
[1] = molecular target: T1, TelJak2 (BaF3 TELJAK cells, TEL/Jak2 fusion) (Homo sapiens, UniProt O60674); experiment: Cellular growth inhibition assay (MTT), BaF3 TEL:JAK2 cell line; assay type: cell-based
T1 construct: The regions encompassing the kinase domain of JAK2 (nucleotides 2994-3914); expressed in transfected cells; host or cells: BaF3 cells bearing the pTET-off plasmid, transfected with pTELJAK2 (pTRE2 vector); the other entry of the earlier key: ETV6 (P41212, Transcription factor ETV6)
T1 sequence (O60674 with tags, fused parts or gaps): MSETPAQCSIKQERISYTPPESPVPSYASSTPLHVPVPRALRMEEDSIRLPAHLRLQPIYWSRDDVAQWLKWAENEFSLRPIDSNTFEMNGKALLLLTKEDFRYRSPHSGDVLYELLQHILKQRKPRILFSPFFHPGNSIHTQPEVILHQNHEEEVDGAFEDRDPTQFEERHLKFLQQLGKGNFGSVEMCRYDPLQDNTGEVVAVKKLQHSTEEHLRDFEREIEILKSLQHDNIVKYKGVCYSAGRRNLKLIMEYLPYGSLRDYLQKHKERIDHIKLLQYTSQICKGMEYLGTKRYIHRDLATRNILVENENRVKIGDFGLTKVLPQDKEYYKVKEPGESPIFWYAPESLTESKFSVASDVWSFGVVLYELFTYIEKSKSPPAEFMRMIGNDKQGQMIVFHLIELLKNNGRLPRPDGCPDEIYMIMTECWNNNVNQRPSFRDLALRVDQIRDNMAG
Procedure: (§1) For screening purposes, compounds were diluted in 96 well plates at a concentration of 20 μM. Plates were warmed at 37° C. for 30 minutes before assay.
(§2) The coding region encompassing nucleotides 1-487 of TEL was amplified by PCR using the oligonucleotides 5TEL (5′-GGAGGATCCTGATCTCTCTCGCTGTGAGAC-3′) (SEQ ID NO: 1) and 3TEL (5′-AGGC GTCGACTTCTTCTTGATGGTTCTG-3′) (SEQ ID NO: 2) and U937 mRNA as template. A BamH I site was incorporated into the 5TEL primer, and a Sal I site was incorporated into the 3TEL primer. The regions encompassing the kinase domain of JAK2 (nucleotides 2994-3914; JAK2F 5′-ACGC GTCGACGGTGCCTTTGAAGACCGGGAT-3 (SEQ ID NO: 3); JAK2R 5′-ATAGTTTAGCGGCCGCTCAGAATGAAGGTCATTT-3′) (SEQ ID NO: 4) and JAK3 (nucleotides 2520-3469; JAK3F 5′-GAAGTCGACTATGCCTGCCAAGACCCCACGATCTT-3′ (SEQ ID NO: 5); JAK3R 5′-GGATCTAGACTATGAAAAGGACAGGGAGTGGTGTTT-3′ (SEQ ID NO: 6)) were generated by PCR using Taq DNA polymerase (Gibco/BRL) and U937 mRNA as template. A Sal I site was incorporated into the forward primer of JAK2 and JAK3, a Not I site was incorporated into the JAK2 reverse primer and a Xba I site was added to the reverse primer of JAK3.
(§3) A TEL/Jak2 fusion was generated by digestion of the TELPCR product with BamH I/Sa1 I, digestion of the JAK2 PCR product with Sa1 I/Not I followed by ligation and subcloning into the mammalian expression Vector pTRE 2 (Clontech) digested with BamH I-Not I (pTELJAK2). For JAK3 Sa1 I/Not I cleaved kinase domain PCR product was ligated with BamH I/Sa1 I cleaved TELproduct followed by ligation into BamH I/Not I cleaved pTRE2 (pTELJAK3).
(§4) The growth factor dependent myelomonocytic cell line BaF3 bearing the pTET-off plasmid (Clontech) was transfected with either pTELJAK2 or pTELJAK3 and the cells selected for factor independent growth. BaF 3 wild type cells were cultured in DMEM 10% FCS, 10% WEHI 3B conditioned medium. BaF3 TELJAK cells were cultured in DMEM 10% Tet-System Approved FBS (without WEHI 3B conditioned medium).
(§5) Cell suspensions were prepared by harvesting cells from culture. (Cells used in this test should be in later log phase growth and high viability.) Cells were diluted in correct growth medium to 1.1× final concentration (from 50000 cell/mL to 200,000 cell/mL, depending on cell line).
(§6) Compounds to be tested were added (10 μL, 10× final concentration) to a flat bottom 96-well plate. The cellular suspension (90 μL per well) was added, and the plate incubated for 40 hr at 37° C., 5% CO2. MTT (20 μL per well, 5 mg/mL in PBS) was added and the plates were returned to the incubator for a further 6 hours. Lysis buffer (100 μL per well, 10% SDS, 0.01N HCl) was added and the plate stored in the incubator overnight. The plate was then read at 590 nm.

[2] = molecular target: T2, TelJak3 (BaF3 TELJAK cells, TEL/JAK3 fusion) (Homo sapiens, UniProt P52333); experiment: Cellular growth inhibition assay (MTT), BaF3 TEL:JAK3 cell line; assay type: cell-based
T2 construct: For JAK3 Sa1 I/Not I cleaved kinase domain PCR product was ligated with BamH I/Sa1 I cleaved TELproduct; expressed in transfected cells; host or cells: BaF3 cells bearing the pTET-off plasmid, transfected with pTELJAK3 (pTRE2 vector); the other entry of the earlier key: ETV6 (P41212, Transcription factor ETV6)
T2 sequence (P52333 with tags, fused parts or gaps): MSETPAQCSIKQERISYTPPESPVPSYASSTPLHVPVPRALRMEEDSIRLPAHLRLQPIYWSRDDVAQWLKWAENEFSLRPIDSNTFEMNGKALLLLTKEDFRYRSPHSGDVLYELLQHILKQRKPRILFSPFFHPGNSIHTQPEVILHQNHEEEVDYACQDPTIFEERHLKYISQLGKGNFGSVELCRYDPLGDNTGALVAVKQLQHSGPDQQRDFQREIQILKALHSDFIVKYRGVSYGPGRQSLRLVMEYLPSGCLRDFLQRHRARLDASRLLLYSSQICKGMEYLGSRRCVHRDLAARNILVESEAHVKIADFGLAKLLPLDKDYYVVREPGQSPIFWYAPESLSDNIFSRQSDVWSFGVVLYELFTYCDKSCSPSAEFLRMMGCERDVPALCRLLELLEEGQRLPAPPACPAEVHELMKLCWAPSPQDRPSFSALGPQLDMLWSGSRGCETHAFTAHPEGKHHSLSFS
Procedure: as §1, §2, §3, §4, §5, §6

[3] = tested on: K562 (Chronic Myeloid Leukemia); experiment: Cellular growth inhibition assay (MTT), K562; assay type: cell-based; details: Homo sapiens, Table 1, 40 hr incubation
Procedure: as §1
(§7) K562 (Chronic Myeloid Leukemia), PC3 (Prostate Cancer), and DU145 (Prostate Cancer) were obtained from the American Type Culture Collection (ATCC). K562 was grown in RPMI, with 10% FBS with Glutamx added. DU145 cells were cultured in DMED, with 10% FBS and Glutamx and MEM non-essential amino acids added. PC3 cells were grown in F12K medium, with 10% FBS and Glutamx and MEM non-essential amino acids added. All cells were grown at 37° C. in 5% CO2.
as §5, §6

PC3 (Prostate Cancer) = experiment: Cellular growth inhibition assay (MTT), PC3; assay type: cell-based; details: Table 1, 40 hr incubation
Procedure: as §1, §7, §5, §6

DU145 (Prostate Cancer) = experiment: Cellular growth inhibition assay (MTT), DU145; assay type: cell-based; details: Homo sapiens
Procedure: as §1, §7, §5, §6

[4] = tested on: Tubulin (microtubule protein); experiment: Tubulin assay (turbidometric assay of microtubule assembly); assay type: biochemical; details: 50 μM, absorbance at 340 nm, 37° C.
Procedure: Turbidometric assays of microtubule assembly were performed by incubating microtubule protein in cuvettes at 37° C. in a thermostatically controlled spectrophotometer measuring the change in absorbance at 340 nm over time. The microtubule protein was incubated with the each test compound at 0° C. and polymerisation was initiated by addition of 1 mM GTP, prior to heating to 37° C.

[5] = DU-145, Table 1, 40 hr incubation
[6] = DU-145, Table 2, 40 hr incubation

Compound	inhibition at 20 µM ([1]; Table 1, 40 hr incubation)	inhibition at 20 µM ([2]; Table 1, 40 hr incubation)	inhibition at 20 µM [3]	inhibition at 20 µM (PC3 (Prostate Cancer))	inhibition at 20 µM (DU145 (Prostate Cancer); [5])	Tubulin inhibition of tubulin polymerisation ([4]; Table 1)	inhibition at 20 µM ([1]; Table 2, 40 hr incubation)	inhibition at 20 µM ([2]; Table 2, 40 hr incubation)	Tubulin inhibition of tubulin polymerisation ([4]; Table 2)	inhibition at 20 µM (DU145 (Prostate Cancer); [6])
CCCC(Nc1cncc(-c2ccc(OCCN(CC)CC)c(OC)c2)n1)c1cncc(C)c1 (stereo not drawn)	> 50%	> 50%	> 50%	< 50%	< 50%					
CCCC(Nc1cncc(-c2ccc(NC(=O)NCC)cc2)n1)c1cccnc1 (stereo not drawn)	> 50%	> 50%	> 50%	< 50%	< 50%					
CCCC(Nc1cncc(-c2ccc(NC(=O)c3cccnc3)c(OC)c2)n1)c1cccnc1 (stereo not drawn)	> 50%	> 50%	> 50%	< 50%	< 50%					
COc1cc(-c2nc(N[C@H](C)c3ccccc3)nnc2C)cc(OC)c1OC	> 50%	> 50%	< 50%	< 50%	< 50%					
CCCC(Nc1cncc(-c2cc(OC)c(OC)c(OC)c2)c1)c1ccccc1 (stereo not drawn)	> 50%	> 50%	> 50%	> 50%	< 50%					
CCCC(Nc1cncc(-c2ccc(NC(=O)C3CCNCC3)c(OC)c2)n1)c1cccnc1 (stereo not drawn)	> 50%	< 50%	> 50%	< 50%	< 50%					
CCCC(Nc1cncc(-c2ccc(C(=O)NCCN(C)C)cc2)n1)c1ccccc1 (stereo not drawn)	> 50%	> 50%	< 50%	< 50%	< 50%					
CCCC(Nc1cncc(-c2ccc(C(=O)NCCCN(CC)CC)cc2)n1)c1ccccc1 (stereo not drawn)	> 50%	> 50%	> 50%	< 50%	> 50%					
CCCC(Nc1cncc(-c2ccc(C(=O)NCCCN3CCOCC3)cc2)n1)c1ccccc1 (stereo not drawn)	> 50%	> 50%	< 50%	< 50%	< 50%					
CCCC(Nc1cncc(-c2ccc(NC(=O)NCC)c(C)c2)n1)c1cccnc1 (stereo not drawn)	> 50%	> 50%	> 50%	> 50%	> 50%	+ (compounds which inhibited tubulin polymerisation by greater than 50% at 50 μM)				
CCCC(Nc1cncc(-c2ccc(NC(=O)NCCCN3CCOCC3)c(OC)c2)n1)c1cccnc1 (stereo not drawn)	> 50%	> 50%	> 50%	> 50%	> 50%	+ (compounds which inhibited tubulin polymerisation by greater than 50% at 50 μM)				
CCCC(Nc1cncc(-c2ccc(NC(=O)NCCN(C)C)c(OC)c2)n1)c1cccnc1 (stereo not drawn)	> 50%	> 50%	> 50%	> 50%	> 50%	+ (compounds which inhibited tubulin polymerisation by greater than 50% at 50 μM)				
CCCC(Nc1cncc(-c2ccc(NC(=O)NCC)c(CC)c2)n1)c1cccnc1 (stereo not drawn)	> 50%	> 50%	> 50%	> 50%	> 50%	+ (compounds which inhibited tubulin polymerisation by greater than 50% at 50 μM)				
COc1cc(-c2cncc(NC(C)c3ccc(-c4cccnc4)cc3)n2)ccc1O (stereo not drawn)							> 50%	> 50%	+ (compounds which inhibited tubulin polymerisation by greater than 50% at 50 μM)	> 50%
COc1cc(-c2cncc(NC(C)c3cccc(NC(=O)[C@H]4CCCN4)c3)n2)ccc1O (stereo partly drawn)							> 50%	> 50%	+ (compounds which inhibited tubulin polymerisation by greater than 50% at 50 μM)	> 50%
CC[C@H](Nc1cncc(-c2ccc(O)c(OC)c2)n1)c1ccccc1							> 50%	> 50%	+ (compounds which inhibited tubulin polymerisation by greater than 50% at 50 μM)	> 50%
COc1cc(-c2cncc(N[C@@H](C)c3ccccc3)n2)ccc1O							> 50%	> 50%	+ (compounds which inhibited tubulin polymerisation by greater than 50% at 50 μM)	> 50%
COc1cc(-c2cncc(NC(C)c3cccc(NC(=O)c4cccnc4)c3)n2)ccc1O (stereo not drawn) [drawing 124]									+ (compounds which inhibited tubulin polymerisation by greater than 50% at 50 μM)	
COc1cc(-c2cncc(NC(C)c3cccc(NC(=O)c4cccnc4)c3)n2)ccc1O (stereo not drawn) [drawing 127]							> 50%	> 50%	+ (compounds which inhibited tubulin polymerisation by greater than 50% at 50 μM)	> 50%
